# Measured values taken from patent publication US10383880B2 (Reset Therapeutics, Inc., priority 2012, dated 2019).
# pEC50: −log10 of the molar value.
# System: Per2-dLuc U2OS reporter cells
# Test: Per2 assay for evaluating the potency of test compounds (high-throughput circadian assay)
# Assay type: cell-based
# Conditions: Homo sapiens, U2OS, stable U2OS reporter cells harboring Per2-dLuc; luminescence monitored over 4-5 days at 35° C.
# Method in brief: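 Compounds (0.5% DMSO final) were added right after serum-shock synchronization of Per2-dLuc U2OS reporter cells in minimal medium containing 1.0 mM beetle luciferin. Reporter luminescence was followed at 35 °C for 4–5 days to extract rhythm period, amplitude and phase, and EC50 values were obtained from these.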
row,Compound,pEC50
1,"O=S1(=O)CCCCN1C[C@@H](O)Cn1c2ccccc2c2ccccc21 [Compound 38, (S)-N-(3-(9H-Carbazol-9-yl)-2-hydroxypropyl)-1,2-thiazinane 1,1-dioxide]",7.96
2,"O=S(=O)(CC1CCCO1)N(Cc1ccco1)CC(O)Cn1c2ccccc2c2ccccc21 (stereo not shown) [Compound 19, N-(3-(9H-Carbazol-9-yl)-2-hydroxypropyl)-N-(furan-2-ylmethyl)-1-(tetrahydrofuran-2-yl)methanesulfonamide]",5.68
3,"COCCN(CC(O)Cn1c2ccc(F)cc2c2ccc(F)cc21)S(C)(=O)=O (stereo not shown) [Compound 104, N-(3-(2,6-Difluoro-9H-carbazol-9-yl)-2-hydroxypropyl)-N-(2-methoxyethyl)methanesulfonamide]",5.46
4,"CN(CC(O)Cn1c2ccc(F)cc2c2cc(F)ccc21)S(C)(=O)=O (stereo not shown) [Compound 89, N-(3-(3,6-Difluoro-9H-carbazol-9-yl)-2-hydroxypropyl)-N-methylmethanesulfonamide]",6.44
5,"CN1CCCN(CC(O)Cn2c3ccccc3c3ccccc32)S1(=O)=O (stereo not shown) [Compound 124, 2-(3-(9H-Carbazol-9-yl)-2-hydroxypropyl)-6-methyl-1,2,6-thiadiazinane-1,1-dioxide]",6.81
6,"CS(=O)(=O)N(CC(O)Cn1c2ccccc2c2ccccc21)c1cccnn1 (stereo not shown) [Compound 79, N-(3-(9H-Carbazol-9-yl)-2-hydroxypropyl)-N-(pyridazin-3-yl)methanesulfonamide]",5.55
7,"CC(C)(N(CC(O)Cn1c2ccccc2c2ccccc21)S(C)(=O)=O)C(F)(F)F (stereo not shown) [Compound 148, N-(3-(9H-Carbazol-9-yl)-2-hydroxypropyl)-N-(1,1,1-trifluoro-2-methylpropan-2-yl)methanesulfonamide]",6.31
8,"CC1CC(N(CC(O)Cn2c3ccc(F)cc3c3cc(F)ccc32)S(C)(=O)=O)C1 (stereo not shown) [Compound 190, N-(3-(3,6-Difluoro-9H-carbazol-9-yl)-2-hydroxypropyl)-N-(3-methylcyclobutyl)methanesulfonamide]",6.68
9,"CCCOc1ccc(N(CC(O)Cn2c3ccc(F)cc3c3cc(F)ccc32)S(C)(=O)=O)cc1 (stereo not shown) [Compound 203, N-(3-(3,6-Difluoro-9H-carbazol-9-yl)-2-hydroxypropyl)-N-(4-propoxyphenyl)methanesulfonamide]",5.75
10,"CS(=O)(=O)N(Cc1ccco1)CC(O)Cn1c2ccc(F)cc2c2cc(F)ccc21 (stereo not shown) [Compound 88, N-(3-(3,6-Difluoro-9H-carbazol-9-yl)-2-hydroxypropyl)-N-(furan-2-ylmethyl)methanesulfonamide]",6.03
11,"O=S1(=O)N(CC(O)Cn2c3ccccc3c3ccccc32)CCCC1(F)F (stereo not shown) [Compound 122, 2-(3-(9H-Carbazol-9-yl)-2-hydroxypropyl)-6,6-difluoro-1,2-thiazinane-1,1-dioxide]",6.48
12,CC(O)(CN1CCNS1(=O)=O)Cn1c2ccc(F)cc2c2cc(F)ccc21 (stereo not shown) [Compound 176],6.90
13,"CC(C)N(CC(O)Cn1c2cc(F)ccc2c2ccc(F)cc21)S(C)(=O)=O (stereo not shown) [Compound 159, N-(3-(2,7-Difluoro-9H-carbazol-9-yl)-2-hydroxypropyl)-N-isopropylmethanesulfonamide]",6.30
14,"CS(=O)(=O)N(CC(O)Cn1c2ccccc2c2ccccc21)C1(C(F)(F)F)CC1 (stereo not shown) [Compound 145, N-(3-(9H-Carbazol-9-yl)-2-hydroxypropyl)-N-(1-(trifluoromethyl)cyclopropyl)methanesulfonamide]",5.87
15,"CC(O)(CN1CCCN(C2CCC2)S1(=O)=O)Cn1c2ccc(F)cc2c2cc(F)ccc21 (stereo not shown) [Compound 229, 2-(3-(3,6-Difluoro-9H-carbazol-9-yl)-2-hydroxy-2-methylpropyl)-6-cyclobutyl-1,2,6-thiadiazinane-1,1-dioxide]",5.30
16,"Cc1cccc(N(CC(O)Cn2c3ccccc3c3ccccc32)S(C)(=O)=O)c1 (stereo not shown) [Compound 63, N-(3-(9H-Carbazol-9-yl)-2-hydroxypropyl)-N-m-tolylmethanesulfonamide]",6.70
17,"CS(=O)(=O)N1CCCC1C(O)Cn1c2ccccc2c2ccccc21 (stereo not shown) [Compound 241, 2-(9H-Carbazol-9-yl)-1-(1-(methyl-sulfonyl)-pyrrolidin-2-yl)ethanol]",6.31
18,"CC1CCN(CC(C)(O)Cn2c3ccc(F)cc3c3cc(F)ccc32)S1(=O)=O (stereo not shown) [Compound 179, 2-(3-(3,6-Difluoro-9H-carbazol-9-yl)-2-hydroxy-2-methylpropyl)-5-methylisothiazolidine-1,1-dioxide]",5.92
19,"CC1(N(CC(O)Cn2c3ccccc3c3ccccc32)S(C)(=O)=O)COC1 (stereo not shown) [Compound 144, N-(3-(9H-Carbazol-9-yl)-2-hydroxypropyl)-N-(3-methyloxetan-3-yl)methanesulfonamide]",5.67
20,"COC1CCS(=O)(=O)N(CC(O)Cn2c3ccc(F)cc3c3cc(F)ccc32)C1 (stereo not shown) [Compound 155, N-(3-(3,6-Difluoro-9H-carbazol-9-yl)-2-hydroxypropyl)-4-methoxy-1,2-thiazinane-1,1-dioxide]",6.49

row,Compound,pEC50
1,"CS(=O)(=O)N(CC(O)Cn1c2cc(F)ccc2c2ccc(F)cc21)C1CCC1 (stereo not shown) [Compound 160, N-Cyclobutyl-N-(3-(2,7-difluoro-9H-carbazol-9-yl)-2-hydroxypropyl)methanesulfonamide]",6.22
2,"O=S1(=O)C(F)CCN1CC(O)Cn1c2ccc(F)cc2c2cc(F)ccc21 (stereo not shown) [Compound 183, 2-(3-(3,6-Difluoro-9H-carbazol-9-yl)-2-hydroxypropyl)-5-fluoroisothiazolidine-1,1-dioxide]",7.28
3,"CS(=O)(=O)N(CC(O)Cn1c2ccccc2c2ccccc21)C1CCCc2ccccc21 (stereo not shown) [Compound 47, N-(3-(9H-Carbazol-9-yl)-2-hydroxypropyl)-N-(1,2,3,4-tetrahydronaphthalen-1-yl)methanesulfonamide]",5.47
4,"CCN1CCCN(CC(O)Cn2c3ccc(F)cc3c3cc(F)ccc32)S1(=O)=O (stereo not shown) [Compound 226, 2-(3-(3,6-Difluoro-9H-carbazol-9-yl)-2-hydroxypropyl)-6-ethyl-1,2,6-thiadiazinane-1,1-dioxide]",6.50
5,"O=S1(=O)CCCCN1CC(O)Cn1c2cccc(F)c2c2c(F)cccc21 (stereo not shown) [Compound 105, N-(3-(4,5-Difluoro-9H-carbazol-9-yl)-2-hydroxypropyl)-1,2-thiazinane 1,1-dioxide]",5.28
6,"O=S1(=O)CCCN1CC(O)Cn1c2ccc(F)cc2c2c(F)cccc21 (stereo not shown) [Compound 108, N-(3-(3,5-Difluoro-9H-carbazol-9-yl)-2-hydroxypropyl)-isothiazolidine-1,1-dioxide]",6.41
7,"CCCc1ccc(N(CC(O)Cn2c3ccc(F)cc3c3cc(F)ccc32)S(C)(=O)=O)cc1 (stereo not shown) [Compound 200, N-(3-(3,6-Difluoro-9H-carbazol-9-yl)-2-hydroxypropyl)-N-(4-propylphenyl)methanesulfonamide]",5.72
8,"CS(=O)(=O)N(CC(O)Cn1c2ccccc2c2ccccc21)c1ccccc1I (stereo not shown) [Compound 26, N-(3-(9H-Carbazol-9-yl)-2-hydroxypropyl)-N-(2-iodophenyl)methanesulfonamide]",5.89
9,"CC1(C)CC1N(CC(O)Cn1c2ccccc2c2ccccc21)S(C)(=O)=O (stereo not shown) [Compound 132, N-(3-(9H-Carbazol-9-yl)-2-hydroxypropyl)-N-(2,2-dimethylcyclopropyl)methanesulfonamide]",6.46
10,"CS(=O)(=O)N(CCc1ccccc1)CC(O)Cn1c2ccccc2c2ccccc21 (stereo not shown) [Compound 54, N-(3-(9H-Carbazol-9-yl)-2-hydroxypropyl)-N-phenethylmethanesulfonamide]",6.08
11,"O=S(=O)(Cc1ccccc1)N(Cc1ccco1)CC(O)Cn1c2ccccc2c2ccccc21 (stereo not shown) [Compound 14, N-(3-(9H-Carbazol-9-yl)-2-hydroxypropyl)-N-(furan-2-ylmethyl)-1-phenylmethanesulfonamide]",6.19
12,"CC(O)(CN(C1(C)CC1)S(C)(=O)=O)Cn1c2ccc(F)cc2c2cc(F)ccc21 (stereo not shown) [Compound 189, N-(3-(3,6-Difluoro-9H-carbazol-9-yl)-2-hydroxy-2-methylpropyl)-N-(1-methylcyclopropyl)methanesulfonamide]",5.89
13,"CS(=O)(=O)N(CC(O)Cn1c2ccccc2c2ccccc21)c1ccc(Br)cc1 (stereo not shown) [Compound 28, N-(3-(9H-Carbazol-9-yl)-2-hydroxypropyl)-N-(4-bromophenyl)methanesulfonamide]",5.68
14,"CS(=O)(=O)N(CC(O)Cn1c2ccccc2c2ccccc21)c1ccc2sccc2c1 (stereo not shown) [Compound 65, N-(3-(9H-Carbazol-9-yl)-2-hydroxypropyl)-N-(benzo[b]thiophen-5-yl)methanesulfonamide]",5.02
15,"CCc1ccc(N(CC(O)Cn2c3ccc(F)cc3c3cc(F)ccc32)S(C)(=O)=O)cc1 (stereo not shown) [Compound 201, N-(3-(3,6-Difluoro-9H-carbazol-9-yl)-2-hydroxypropyl)-N-(4-ethylphenyl)methanesulfonamide]",5.80
16,"CS(=O)(=O)N(Cc1ccccc1)CC(O)Cn1c2ccccc2c2ccccc21 (stereo not shown) [Compound 44, N-(3-(9H-Carbazol-9-yl)-2-hydroxypropyl)-N-benzylmethanesulfonamide]",5.08
17,"CS(=O)(=O)N(Cc1ccco1)CC(O)Cn1c2ccccc2c2cc(F)ccc21 (stereo not shown) [Compound 238, N-(3-(3-Fluoro-9H-carbazol-9-yl)-2-hydroxy-propyl)-N-(furan-2-yl-methyl)methane-sulfonanide]",6.27
18,"CS(=O)(=O)N(CC(O)Cn1c2ccccc2c2ccccc21)c1ccc(Cl)cc1 (stereo not shown) [Compound 22, N-(3-(9H-Carbazol-9-yl)-2-hydroxypropyl)-N-(4-chlorophenyl)methanesulfonamide]",6.29
19,"COCCN(CC(O)Cn1c2ccc(F)cc2c2cc(F)ccc21)S(C)(=O)=O (stereo not shown) [Compound 90, N-(3-(3,6-Difluoro-9H-carbazol-9-yl)-2-hydroxypropyl)-N-(2-methoxyethyl)methanesulfonamide]",6.39
20,"CS(=O)(=O)N(CC(O)Cn1c2ccccc2c2ccccc21)c1ccc2cn[nH]c2c1 (stereo not shown) [Compound 78, N-(3-(9H-Carbazol-9-yl)-2-hydroxypropyl)-N-(1H-indazol-6-yl)methanesulfonamide]",5.20
